Assay results taken from patent publication US11442059B2, “Method for treating a chronic itch condition by administering small molecule MrgprX4 antagonists” (The Johns Hopkins University, priority 2017, dated 2022).
Entries after “also recorded” stand apart in the source; their conditions may differ. Starred links: 1 amine or outer side, 2 acyl side, 3 side chain; linkers in the order of their positions; H or OH if unused. Positions of bridges follow the written chain, without caps; N, C: chain ends. Non-standard residues stand in square brackets, D forms with d. Residues, ends and D or L forms follow the SMILES beside them. X1 = CC(=O)NC(C(=O)OC(C(C)C)C(N[*:1])C(=O)[*:2])C(O)C(C)C; PhLac = O=C(O)[CH](O)Cc1ccccc1; NMeT = CN[CH](C(=O)O)[CH](C)O; NMeA = CN[CH](C)C(=O)O; NMeDha = C=C(NC)C(=O)O

Key:
mice = assay: Acute itch behaviour after injection (scratching bouts); type: in vivo, mouse; details: for itch responses in WT versus Cluster KO animals: injection at nape or cheek; for scratching / itch elicited by injection: WT mice; for itch elicited in Cluster KO animals: Cluster KO mice
MrgprA1 = target: T1, MrgprA1 (Mus musculus, UniProt Q91WW5); assay: Fura 2-AM calcium imaging, EC50 and IC50 determinations, MRGPRA1 HEK293 cells; type: cell-based; details: 10 μM pre-incubated 30 minutes; 50 μM bilirubin
T1 construct: expressed in transfected cells; whole cells or crude membrane fraction
T1 sequence (Q91WW5 1-304): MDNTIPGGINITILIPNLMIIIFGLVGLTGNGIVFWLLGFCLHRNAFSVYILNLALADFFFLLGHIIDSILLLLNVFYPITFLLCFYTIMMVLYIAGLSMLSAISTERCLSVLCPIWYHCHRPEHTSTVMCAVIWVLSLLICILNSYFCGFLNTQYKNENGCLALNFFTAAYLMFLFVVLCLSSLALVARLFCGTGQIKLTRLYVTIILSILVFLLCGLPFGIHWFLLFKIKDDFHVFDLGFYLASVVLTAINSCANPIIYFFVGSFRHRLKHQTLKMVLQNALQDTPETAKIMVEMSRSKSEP
Protocol: (§1) Cells were imaged in calcium imaging buffer (CIB; 10 mM HEPES, 1.2 mM NaHCO3, 130 mM NaCl, 3 mM KCl, 2.5 mM CaCl2, 0.6 mM MgCl2, 20 mM glucose, and 20 mM sucrose at pH 7.4 and 290-300 mOsm). To monitor changes in intracellular [Ca^2+] ([Ca^2+]i), cells were loaded with either Fura 2-AM (HEK293 cells) or Fluo 4-AM (DRG neurons and mast cells) for 30 min in the dark at 37° C. in CIB just prior to imaging. With Fura 2-AM, emission at 510 nm was monitored from excitation at both 340 nm and 380 nm. With Fluo 4-AM, emission at 520 nm was monitored from excitation at 488 nm. Cells were identified as responding if the intracellular [Ca^2+] rose by either 50% compared to baseline or 50% compared to the [Ca^2+]i change assayed during addition of 50 mM KCl (neurons only). Damaged, detached, high-baseline, and motion-activated cells were excluded from analysis.
(§2) In initial screens, HEK293 cells stably expressing the murine G-protein alpha-subunit Gα15, a unique Gα protein that non-selectively couples a large variety of GPCRs to phospholipase C^30, were plated on poly-D-lysine-coated coverslips and transiently transfected with constructs encoding the MRGRPR of interest. 12-24 h later, cells were loaded with the Fura 2-AM. Unless otherwise specified, compounds were perfused into the imaging chamber for approximately thirty seconds after a baseline period was established. Response was then monitored at 5 s intervals for an additional 60 s.
(§3) HEK293 cells stably expressing either MRGPRA1, MRGPRX4, and MRGRPC11 were seeded in poly-D-lysine-coated 96-well plates at 10,000 cells/well. Cells were loaded with Fura 2-AM, washed twice, and maintained in CIB. Haem metabolites were freshly dissolved in DMSO in dim light and then diluted into a buffer comprised of 20 mM Tris and 150 mM NaCl at pH 8.8. Potential changes in pH were evaluated prior to each experiment. EC50 values were determined from dose-responses performed in triplicate, repeated 2-4 times. To determine potential antagonism by QWF against bilirubin, cells were treated with varying doses of QWF for 1 min in CIB prior to application of agonist.

MRGPRX4 [1] = target: T2, MRGPRX4 (Homo sapiens, UniProt Q96LA9); assay: Fura 2-AM calcium imaging, EC50 determinations, MRGPRX4 HEK293 cells; type: cell-based; design: expressed in transfected cells; whole cells or crude membrane fraction; details: 10 μM pre-incubated 30 minutes; 50 μM bilirubin
T2 sequence (Q96LA9 whole entry): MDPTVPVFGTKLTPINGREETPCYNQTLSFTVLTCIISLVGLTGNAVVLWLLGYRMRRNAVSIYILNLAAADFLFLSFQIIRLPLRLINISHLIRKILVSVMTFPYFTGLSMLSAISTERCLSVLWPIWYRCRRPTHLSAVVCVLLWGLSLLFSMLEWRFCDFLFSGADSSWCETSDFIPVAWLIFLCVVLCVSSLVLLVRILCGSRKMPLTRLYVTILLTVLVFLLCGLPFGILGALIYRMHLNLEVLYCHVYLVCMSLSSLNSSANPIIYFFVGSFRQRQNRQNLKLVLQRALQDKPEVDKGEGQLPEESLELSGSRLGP
Protocol: as §1, §2
as §3, with “To determine potential antagonism by QWF against bilirubin, cells were treated with varying doses of QWF for 1 min in CIB prior to application of agonist.” left out

129S1/SvImJ mice = assay: SJS/TEN mouse model (daily oral gavage of causative drug); type: in vivo; details: mouse, in vivo
Protocol: Eight-to-ten week old male mice were orally gavaged with either causative drugs (LTG, allopurinol, oxcarbazepine) suspended in saline or saline once daily. The dosage was based on milligrams per kilogram of animal's body weight as indicated (for example, LTG 50 mg kg^−1 body weight). Skin, eyes, and mucosa, survival, body weight, physical and gross appearances (particularly on the eyes, mucosa and skins) were monitored every day.
The animals were deeply anesthetized with pentobarbital and transcardially perfused with 20 ml 0.1 M cold PBS (pH 7.4) followed with 25 ml of cold 4% paraformaldehyde (PFA). Paw skin, eyelid, spleen, lymph nodes were dissected out. postfixed in 4% PFA for more than two hours, and cryoprotected in a 20% followed by 30% sucrose solution for 24 hours each at 4° C. Tissue samples were embedded in the optimal cutting temperature (OCT) and frozen before being serially cut into 20 μm sections and placed onto slides. Hematoxylin and eosin (H&E) staining was performed using standard procedures according to the manufacturer's instruction VITROVIEW™ H&E Stain Kit). To quantify amount of apoptotic cells, terminal deoxynucleotidyl transferase dUTP nick end labeling (TUNEL) assay, a method for detecting DNA fragmentation that results from apoptotic cells by labeling the terminal end of nucleic acids, was performed by following the protocol of Apo-BrdU DNA Fragmentation Assay Kit (Biovision). To estimate the total cell number in tissue, all nuclei were stained with propidium iodide. Digital photographs were captured under confocal fluorescent microscopy at x200 magnification (Zeiss LSM 700). The number of TUNEL-positive nuclei were counted and reported as a percentage over the number of total nuclei observed in the skin's epidermis layer.

MRGPRX4 [2] = target: T2, MRGPRX4; assay: MrgprX4 inverse agonist assay (HTRF IP-One inositol phosphate); type: cell-based; design: expressed in transfected cells; details: HEK293 cells stably expressing recombinant human MrgprX4, final assay concentration typically 10 μM
Protocol: (§4) Intracellular inositol phosphate levels were determined using a 384-well homogenous time-resolved fluorescence assay (HTRF IP-One®, CisBio International, Bagnols/Ceze, France, Cat #62IPAPEJ) as described by the manufacturer's one-step protocol. Briefly, HEK293 cells stably expressing recombinant human MrgprX4 were harvested and suspended in phenol-red free OptiMEM (ThermoFisher) and plated into 384-well assay plates (Perkin Elmer, Proxiplate-Plus® Cat #6008280) at 15,000 cells/well in a volume of 10 μL/well. These cell plates were then incubated overnight at 37° C. in a humidified CO2 incubator. Test compounds were dissolved in DMSO and were further diluted in Assay Buffer (Tris.HCl 40 mM, NaCl 300 mM, LiCl 350 mM, pH 8) and added to the cells (2 μL addition, final assay concentration typically 10 μM). In this configuration, the assay can detect agonists and inverse agonists. For detection of antagonists, test compound addition was followed by addition of bilirubin (2 μL addition, final assay concentration 100 μM). Regardless of the assay format (agonist/inverse agonist vs. antagonist) plates were then incubated for 1 h, at 37° C., followed by 30 minutes at room temperature. Lysis/detection reagents (6 uL/well) were then added and plates incubated for 1 h at room temperature before reading on an HTRF compatible reader such as a Perkin Elmer EnVision® or BMG Pherastar®.

MRGPRX4 [3] = target: T2, MRGPRX4; assay: MrgprX4 antagonist assay vs bilirubin (HTRF IP-One inositol phosphate); type: cell-based; design: expressed in transfected cells; details: blockade of bilirubin (100 μM) induced signal; test compound typically 10 μM
Protocol: as §4

Compound: C[C@@H](NC(=O)[C@@H](N)Cc1ccc(O)cc1)C(=O)NCC(=O)N(C)[C@@H](Cc1ccccc1)C(=O)NCCO [DAMGO]
- itch responses in WT versus Cluster KO animals (mice): comparable itch responses

Compound: C=C1C(=O)NC(C)C(=O)N(C)C(C)C(=O)NC(C(OC(=O)C(NC(C)=O)C(O)C(C)C)C(C)C)C(=O)N(C)C(C(C)OC)C(=O)OC(C)C(NC(C)=O)C(=O)OC(Cc2ccccc2)C(=O)N1C (stereo not shown) [YM-254890] (Ac-T[PhLac][NMeDha]A[NMeA][X1][NMeT](Me); ester 1-C; configuration not given here)
- effect on bilirubin-induced calcium responses, MRGPRA1 (MrgprA1): abolished
- effect on bilirubin-induced calcium responses, MRGPRX4 (MRGPRX4 [1]): inhibited

Compound: Oc1ncnc2[nH]ncc12 [allopurinol]
- eye manifestation (129S1/SvImJ mice): can also induce eye manifestation

Compound: C=CC1=C(C)/C(=C/C2=NC(=C\c3[nH]c(/C=C4\NC(=O)C(C)=C4C=C)c(C)c3CCC(=O)O)/C(CCC(=O)O)=C2C)NC1=O [biliverdin]
- scratching / itch elicited by injection (mice): did not induce scratching

Compound: O=C(O)COCCN1CCN(C(c2ccccc2)c2ccc(Cl)cc2)CC1 (stereo not shown) [cetirizine]
- effect on bilirubin-induced scratching (mice; 30 mg/kg, i.p., thirty minutes prior to bilirubin): failed to temper scratching behavior

Compound: Cc1c(C(=O)NCc2ccccc2C(F)(F)F)ncn1Cc1ccc(Cl)cc1 [compound 1]
- Inverse Agonist Activity (MRGPRX4 [2]): ++++ (an activity of at least 3 standard deviations below baseline)
- Antagonist Activity (MRGPRX4 [3]): ++++ (a blockade of bilirubin induced signal of at least 85%)

Compound: Cc1nc(-c2ccnn2Cc2ccc(Cl)cc2)[nH]c1-c1ccccc1 [compound 2]
- Inverse Agonist Activity (MRGPRX4 [2]): ++++ (an activity of at least 3 standard deviations below baseline)
- Antagonist Activity (MRGPRX4 [3]): ++++ (a blockade of bilirubin induced signal of at least 85%)

Compound: O=C(NCc1cc2ccccc2[nH]1)c1cc(-c2ccccn2)nc2ccc(Br)cc12 [compound 3]
- Inverse Agonist Activity (MRGPRX4 [2]): +++ (an activity of from 2 standard deviations to less than 3 standard deviations below baseline)
- Antagonist Activity (MRGPRX4 [3]): ++++ (a blockade of bilirubin induced signal of at least 85%)

Compound: Nc1nc2ccccc2n1CCOc1ccccc1Cl [compound 4]
- Inverse Agonist Activity (MRGPRX4 [2]): +++ (an activity of from 2 standard deviations to less than 3 standard deviations below baseline)
- Antagonist Activity (MRGPRX4 [3]): +++ (a blockade of bilirubin induced signal of from 70% to less than 85%)

Compound: C=CC1=C(C)c2cc3[n-]c(cc4[n-]c(cc5nc(cc1n2)C(C)=C5C=C)c(C)c4CCC(=O)O)c(CCC(=O)O)c3C.O.[Fe+2] [hematin]
- itch elicited in Cluster KO animals (mice): absent
- scratching / itch elicited by injection (mice): elicited itch

Compound: CN1CC[C@]23c4c5ccc(O)c4O[C@H]2[C@@H](O)C=C[C@H]3[C@H]1C5 [morphine]
- itch responses in WT versus Cluster KO animals (mice): comparable itch responses

Compound: CCC1=C(C)C(Cc2[nH]c(Cc3[nH]c(CC4NC(=O)C(C)=C4CC)c(C)c3CCC(=O)O)c(CCC(=O)O)c2C)NC1=O (stereo not shown) [urobilinogen]
- scratching / itch elicited by injection (mice): able to stimulate scratching behavior

Compound: FMRF: an MRGPRA1 agonist
- scratching / itch elicited by injection (mice): caused itch

Compound: lysophosphatidic acid [LPA]
- itch responses in WT versus Cluster KO animals (mice): comparable itch responses

Compound: stercobilin
- itch elicited in Cluster KO animals (mice): absent
- scratching / itch elicited by injection (mice): elicited itch; also recorded: able to stimulate scratching behavior
